Experimental findings from patent US20200131669A1, “CYCLIC PEPTIDE COMPOUND HAVING HIGH MEMBRANE PERMEABILITY, AND LIBRARY CONTAINING SAME” (Chugai Seiyaku Kabushiki Kaisha, priority 2017, published 2020) are described below.

Each structure is given as a SMILES string. Starred links: 1 amine or outer side, 2 acyl side, 3 side chain; linkers in the order of their positions; H or OH if unused. Positions of bridges follow the written chain, without caps; N, C: chain ends. Non-standard residues stand in square brackets, D forms with d. Residues, ends and D or L forms follow the SMILES beside them. ξ: configuration not given here. *: point of attachment. Glu(NHSO2Me) = CS(=O)(=O)NC(=O)CC[C@H](N)C(=O)O; Phe(4-CF3) = N[C@@H](Cc1ccc(C(F)(F)F)cc1)C(=O)O; Phe(4-CHF2) = N[C@@H](Cc1ccc(C(F)F)cc1)C(=O)O; NMePhe(3-Cl) = CN[C@@H](Cc1cccc(Cl)c1)C(=O)O; X17 = O=C([C@H](CCCC(O)C(F)(F)F)N[*:1])[*:2]; hNle(7,7-F2) = N[C@@H](CCCCC(F)F)C(=O)O; Ethyl(2-morpholino) = C1CN(CC*)CCO1; X9 = O=C(CN(CCOc1ccccc1)[*:1])[*:2]; NMeF = CN[C@@H](Cc1ccccc1)C(=O)O; NMeGABA = CN(CCCC(=O)[*:2])[*:1]; NMeI = CC[C@H](C)[C@H](NC)C(=O)O; ξThr(3R) = C[C@@H](O)C(N)C(=O)O; NMeL = CN[C@@H](CC(C)C)C(=O)O; NMeV = CN[C@H](C(=O)O)C(C)C; NMeAbu = CC[C@H](NC)C(=O)O; NMeA = CN[C@@H](C)C(=O)O; Piperidide = C1CCN(*)CC1; NBuGly = CCCCNCC(=O)O; Isopentyl = CC(C)CC*; X2 = Fc1cncc(C*)c1; Sar = CNCC(=O)O; tBu = CC(C)(C)*; CHF2 = FC(F)*

One data set is described as follows: Caco-2 membrane permeability, improved method as used in the following Examples (96-well, 20 to 24 h preincubation). To be noted: Caco-2, Caco-2. The format is in vitro ADME. In a few lines:
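Papp (cm/sec) was derived from LC/MS of basal samples collected 180 min after apical dosing in FaSSIF/HBSS pH 6.0 with 1% DMSO, against a basal HBSS pH 7.4 receiver containing 4% BSA. Three-week Caco-2 cultures were first preincubated with compound in DMEM+FaSSIF at 37 °C for 20–24 h.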
For orientation: Papp A→B means the apparent permeability from the apical to the basolateral side of a cell layer. A lower Papp A→B goes with poor permeation. `CC[C@H](C)[C@@H]1NC(=O)[C@H](CC(C)C)N(C)C(=O)[C@H](CCCC(O)C(F)(F)F)NC(=O)[C@H](Cc2ccccc2)N(C)C(=O)CN(C)C(=O)C[C@@H](C(=O)N2CCCCC2)NC(=O)[C@H](CC(C)C)N(C)C(=O)[C@H](COC(C)(C)C)NC(=O)[C@H](CC(C)C)N(C)C(=O)[C@H](Cc2ccccc2)N(C)C(=O)CN(C)C1=O` (stereo partly drawn) [pd502] ([Sar][NMeF][X17][NMeL]I[Sar][NMeF][NMeL]S(tBu)[NMeL]D-Piperidide; lactam N-11) had an apparent permeability from apical to basolateral (Papp A→B) of 1 ×10⁻⁶ cm/s.

The data set is the same for the next values; noted with them: human, Caco-2, Caco-2.
`CC(C)C[C@@H]1NC(=O)C[C@@H](C(=O)N2CCCCC2)NC(=O)[C@H](CC(C)C)N(C)C(=O)[C@H](CC(C)C)N(C)C(=O)[C@H](Cc2ccc(OC(F)F)cc2)NC(=O)[C@H](C)N(C)C(=O)CN(C)C(=O)[C@H]([C@@H](C)O)NC(=O)[C@H](CC(C)C)N(C)C(=O)[C@H](C(C)C)NC(=O)[C@H](Cc2ccccc2)N(C)C1=O` [pd477] (L[NMeF]V[NMeL]T[Sar][NMeA]Y(CHF2)[NMeL][NMeL]D-Piperidide; lactam N-11) gave a Papp A→B at 180 min of 2.2 ×10⁻⁶ cm/s.

The compound `CC(C)C[C@@H]1NC(=O)[C@H](Cc2ccccc2)N(C)C(=O)[C@H](C)N(C)C(=O)C[C@@H](C(=O)N2CCCCC2)NC(=O)[C@H](CC(C)C)N(C)C(=O)[C@H](CC(C)C)N(C)C(=O)[C@H](COC(C)(C)C)NC(=O)[C@H](CC(C)C)N(C)C(=O)[C@H](C)N(C)C(=O)[C@H](CCC(=O)N(C)C)NC(=O)[C@H](CC(C)C)N(C)C1=O` [pd440] ([NMeA][NMeF]L[NMeL]E(NMe2)[NMeA][NMeL]S(tBu)[NMeL][NMeL]D-Piperidide; lactam N-11) registered a Papp A→B at 180 min of 4 ×10⁻⁶ cm/s.

As to `CCCCN1CC(=O)N(C)[C@@H](C)C(=O)N[C@@H](COC(C)(C)C)C(=O)N(C)[C@@H](CC(C)C)C(=O)N(CCOc2ccccc2)CC(=O)N[C@H](C(=O)N2CCCCC2)CC(=O)N[C@H](CC(C)C)C(=O)N(C)[C@@H](Cc2ccccc2)C(=O)N[C@@H](CC(C)C)C(=O)N(C)[C@@H](CC)C(=O)N[C@@H]([C@@H](C)O)C1=O` [pd422] ([dL][NMeF]L[NMeAbu]T[NBuGly][NMeA]S(tBu)[NMeL][X9]D-Piperidide; lactam N-11), the Papp A→B at 180 min amounted to 1 ×10⁻⁶ cm/s.

With `CC(C)CCOC[C@@H]1NC(=O)[C@H](Cc2ccccc2)N(C)C(=O)[C@@H](C)NC(=O)C[C@@H](C(=O)N2CCCCC2)NC(=O)[C@H](CC(C)C)N(C)C(=O)[C@H](Cc2ccccc2)N(C)C(=O)[C@H](COC(C)(C)C)NC(=O)[C@H](CC(C)C)N(C)C(=O)CN(C)C(=O)[C@H]([C@@H](C)O)NC(=O)[C@H](CC(C)C)N(C)C1=O` [pd301] ([dA][NMeF]S(Isopentyl)[NMeL]T[Sar][NMeL]S(tBu)[NMeF][NMeL]D-Piperidide; lactam N-11), the apical-to-basolateral permeability (Papp A→B) at 180 min was 1.7 ×10⁻⁶ cm/s.

For the compound `CC[C@H](C)[C@@H]1NC(=O)[C@H](CC(C)C)N(C)C(=O)CCCN(C)C(=O)C[C@@H](C(=O)N2CCCCC2)NC(=O)[C@H](CC(C)C)N(C)C(=O)[C@H](CC(C)C)N(C)C(=O)[C@H](COCCN2CCOCC2)NC(=O)[C@H](CC(C)C)N(C)C(=O)[C@H](COC(C)(C)C)NC(=O)[C@H](CC)N(C)C(=O)[C@H](Cc2ccccc2)N(C)C1=O` [pd485] ([NMeGABA][NMeL]I[NMeF][NMeAbu]S(tBu)[NMeL]S(Ethyl(2-morpholino))[NMeL][NMeL]D-Piperidide; lactam N-11), the apparent permeability from apical to basolateral (Papp A→B) at 180 min came to 1.2 ×10⁻⁶ cm/s.

As for `CC(C)C[C@H]1C(=O)N[C@@H](COC(C)(C)C)C(=O)N(C)[C@@H](Cc2ccccc2)C(=O)N(C)[C@@H](C(C)C)C(=O)N[C@H](C(=O)N2CCCCC2)CC(=O)N[C@H](C(C)C)C(=O)N(C)[C@@H](Cc2ccccc2)C(=O)N[C@@H](COc2cccc(Cl)c2)C(=O)N(C)[C@@H](C)C(=O)N[C@@H]([C@@H](C)O)C(=O)N(C)CC(=O)N1C` [pd342], the Papp A→B at 180 min amounted to 1.9 ×10⁻⁶ cm/s.

Compound `CC(C)C[C@H]1C(=O)N[C@@H](COC(C)(C)C)C(=O)N(C)[C@@H](Cc2ccccc2)C(=O)N(C)[C@@H](C(C)C)C(=O)N[C@H](C(=O)N2CCCCC2)CC(=O)N[C@H](C(C)C)C(=O)N(C)[C@@H](Cc2ccccc2)C(=O)N[C@@H](COCc2cncc(F)c2)C(=O)N(C)[C@@H](CC(C)C)C(=O)N[C@@H]([C@@H](C)O)C(=O)N(C)CC(=O)N1C` [pd346] ([dV][NMeF]S(X2)[NMeL]T[Sar][NMeL]S(tBu)[NMeF][NMeV]D-Piperidide; lactam N-11) displayed a Papp A→B at 180 min of 2.4 ×10⁻⁶ cm/s.

Take `CC(C)CCOC[C@@H]1NC(=O)[C@H](CC(C)C)N(C)C(=O)[C@H](Cc2ccccc2)N(C)C(=O)CN(C)C(=O)[C@H]([C@@H](C)O)NC(=O)[C@H](CC(C)C)N(C)C(=O)[C@H](CCCCC(F)F)NC(=O)[C@H](Cc2ccccc2)N(C)C(=O)CN(C)C(=O)C[C@@H](C(=O)N2CCCCC2)NC(=O)[C@H](CC(C)C)N(C)C1=O` [pd338] ([Sar][NMeF][hNle(7,7-F2)][NMeL]T[Sar][NMeF][NMeL]S(Isopentyl)[NMeL]D-Piperidide; lactam N-11): the apparent permeability from apical to basolateral (Papp A→B) at 180 min came to 1.8 ×10⁻⁶ cm/s.

Turning to `CC(C)C[C@@H]1NC(=O)[C@H](C)N(C)C(=O)C[C@@H](C(=O)N2CCCCC2)NC(=O)[C@H](CC(C)C)N(C)C(=O)CN(C)C(=O)[C@H]([C@@H](C)O)NC(=O)[C@H](C(C)C)N(C)C(=O)[C@H](CC(C)C)N(C)C(=O)[C@H](Cc2ccc(C(F)F)cc2)NC(=O)[C@H](CC(C)C)N(C)C(=O)[C@H](CC(C)C)N(C)C1=O` [pd474] ([NMeA]L[NMeL][NMeL][Phe(4-CHF2)][NMeL][NMeV]T[Sar][NMeL]D-Piperidide; lactam N-11), the apparent permeability from apical to basolateral (Papp A→B) at 180 min was determined as 4.5 ×10⁻⁶ cm/s.

On to `CCCCN1CC(=O)N(C)[C@@H](CC(C)C)C(=O)N[C@H](C(=O)N2CCCCC2)CC(=O)N(C)[C@@H](CC(C)C)C(=O)N[C@@H](CC(C)C)C(=O)N(C)[C@@H](CC)C(=O)N(C)[C@@H](Cc2ccccc2)C(=O)N[C@@H](CCC(=O)NS(C)(=O)=O)C(=O)N(C)[C@@H](Cc2cccc(Cl)c2)C(=O)N(C)[C@@H](CC(C)C)C(=O)NC([C@@H](C)O)C1=O` (stereo partly drawn) [pd64] ([NMeL]L[NMeAbu][NMeF][Glu(NHSO2Me)][NMePhe(3-Cl)][NMeL][ξThr(3R)][NBuGly][NMeL]D-Piperidide; lactam N-11), for which the apical-to-basolateral permeability (Papp A→B) at 180 min amounted to 0.15 ×10⁻⁶ cm/s.

Consider `CC(C)C[C@@H]1NC(=O)[C@H](CC(C)C)N(C)C(=O)CCCN(C)C(=O)C[C@@H](C(=O)N2CCCCC2)NC(=O)[C@H](CC(C)C)N(C)C(=O)[C@H](CC(C)C)N(C)C(=O)[C@H](CC(C)C)NC(=O)[C@H](CC(C)C)N(C)C(=O)[C@H](CCC(=O)NS(C)(=O)=O)NC(=O)[C@H](Cc2ccccc2)N(C)C(=O)[C@H](Cc2ccccc2)N(C)C1=O` [pd68] ([NMeGABA][NMeL]L[NMeF][NMeF][Glu(NHSO2Me)][NMeL]L[NMeL][NMeL]D-Piperidide; lactam N-11), for which the Papp A→B at 180 min amounted to 0.1 ×10⁻⁶ cm/s.

Compound `CC(=O)NCCCC[C@@H]1NC(=O)[C@H](CC(C)C)N(C)C(=O)[C@H](CC(C)C)NC(=O)[C@H](Cc2ccccc2)N(C)C(=O)[C@@H](C(C)C)NC(=O)C[C@@H](C(=O)N2CCCCC2)NC(=O)[C@H](C(C)C)N(C)C(=O)[C@H](Cc2ccccc2)N(C)C(=O)[C@H](COC(C)(C)C)NC(=O)[C@H](CC(C)C)N(C)C(=O)CN(C)C1=O` [pd470] ([dV][NMeF]L[NMeL]K(Ac)[Sar][NMeL]S(tBu)[NMeF][NMeV]D-Piperidide; lactam N-11) had an apparent permeability from apical to basolateral (Papp A→B) at 180 min of 2.1 ×10⁻⁶ cm/s.

The same data set, now with this note: human, Caco-2, Caco-2 (cm/sec).
Consider `CC(C)C[C@H]1C(=O)N[C@@H](COC(C)(C)C)C(=O)N(C)[C@@H](Cc2ccccc2)C(=O)N(C)[C@@H](C)C(=O)N[C@H](C(=O)N2CCCCC2)CC(=O)N[C@H](C(C)C)C(=O)N(C)[C@@H](C(C)C)C(=O)N[C@@H](Cc2ccc(C(F)(F)F)cc2)C(=O)N(C)[C@@H](CC(C)C)C(=O)N[C@@H]([C@@H](C)O)C(=O)N(C)CC(=O)N1C` [pd134] ([dV][NMeV][Phe(4-CF3)][NMeL]T[Sar][NMeL]S(tBu)[NMeF][NMeA]D-Piperidide; lactam N-11), for which the Papp A→B at 180 min came to 2.6 ×10⁻⁶ cm/s.

`CC(C)C[C@@H]1NC(=O)[C@H](Cc2ccccc2)N(C)C(=O)[C@H]([C@@H](C)O)NC(=O)[C@H](Cc2ccccc2)N(C)C(=O)CN(C)C(=O)[C@H](Cc2ccccc2)NC(=O)[C@H](CC(C)C)N(C)C(=O)[C@H](CC(C)C)NC(=O)[C@H](Cc2ccccc2)N(C)C(=O)[C@H](C)N(C)C(=O)C[C@@H](C(=O)N2CCCCC2)NC1=O` [pd231] ([NMeA][NMeF]L[NMeL]F[Sar][NMeF]T[NMeF]LD-Piperidide; lactam N-11) yielded an apical-to-basolateral permeability (Papp A→B) at 180 min of 0.21 ×10⁻⁶ cm/s.

As to `CC[C@H](C)[C@H]1C(=O)N[C@@H]([C@@H](C)O)C(=O)N(C)CC(=O)N(C)[C@@H](CC(C)C)C(=O)N[C@H](C(=O)N2CCCCC2)CC(=O)N(C)[C@@H](C(C)C)C(=O)N[C@@H](COCc2cncc(F)c2)C(=O)N(C)[C@@H](CC(C)C)C(=O)N(C)[C@@H](Cc2ccccc2)C(=O)N[C@@H](CC(C)C)C(=O)N(C)[C@@H](Cc2ccccc2)C(=O)N1C` [pd181] ([NMeV]S(X2)[NMeL][NMeF]L[NMeF][NMeI]T[Sar][NMeL]D-Piperidide; lactam N-11), the Papp A→B at 180 min is 1.1 ×10⁻⁶ cm/s.

With `CC(C)C[C@H]1C(=O)N(C)[C@@H](Cc2ccccc2)C(=O)N(C)[C@@H](Cc2ccccc2)C(=O)N[C@@H]([C@@H](C)O)C(=O)N(C)[C@@H](C)C(=O)N(C)[C@@H](Cc2ccccc2)C(=O)N[C@H](C(=O)N2CCCCC2)CC(=O)N(C)[C@@H](C)C(=O)N(C)[C@@H](Cc2ccccc2)C(=O)N(C)[C@@H](CC(C)C)C(=O)N[C@@H](C(C)C)C(=O)N1C` [pd233] ([NMeA][NMeF][NMeL]V[NMeL][NMeF][NMeF]T[NMeA][NMeF]D-Piperidide; lactam N-11), the apical-to-basolateral permeability (Papp A→B) at 180 min stood at 0.17 ×10⁻⁶ cm/s.
